The values below come from patent publication EP4745137A1 (Gluetacs Therapeutics (Shanghai) Co., Ltd., priority 2023, dated 2025).

In one assay the target is T1, WEE1 (Homo sapiens, UniProt P30291+Q96SW2).
T1 construct: endogenous in cells; host or cells: hPBMCs (Milecell Biotechnologies)
Briefly: Western-blot assay of substrate protein degradation in hPBMCs, WEE1. In kind it is cell-based. To be noted: 24 hours of compound treatment, 50 nM and 500 nM tested (concentration behind the class not stated).

The next assay deals with T2, IKZF1 (Homo sapiens, UniProt Q13422+Q96SW2).
T2 construct: endogenous in cells; host or cells: hPBMCs (Milecell Biotechnologies)
T2 sequence (Q13422 whole entry): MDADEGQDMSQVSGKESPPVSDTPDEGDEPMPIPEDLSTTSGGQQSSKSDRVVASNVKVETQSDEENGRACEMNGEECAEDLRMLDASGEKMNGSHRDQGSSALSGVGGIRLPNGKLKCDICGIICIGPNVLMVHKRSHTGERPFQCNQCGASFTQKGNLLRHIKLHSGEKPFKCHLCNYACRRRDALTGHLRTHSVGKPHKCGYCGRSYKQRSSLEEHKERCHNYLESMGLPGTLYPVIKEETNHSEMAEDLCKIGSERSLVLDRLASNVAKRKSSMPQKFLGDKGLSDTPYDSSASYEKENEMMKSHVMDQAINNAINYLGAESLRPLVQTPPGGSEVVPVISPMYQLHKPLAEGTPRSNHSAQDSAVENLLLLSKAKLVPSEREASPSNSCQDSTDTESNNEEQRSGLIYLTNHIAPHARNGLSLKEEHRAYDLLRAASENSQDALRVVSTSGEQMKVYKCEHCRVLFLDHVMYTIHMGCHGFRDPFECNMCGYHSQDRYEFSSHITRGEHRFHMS
T2 sequence (Q96SW2 whole entry): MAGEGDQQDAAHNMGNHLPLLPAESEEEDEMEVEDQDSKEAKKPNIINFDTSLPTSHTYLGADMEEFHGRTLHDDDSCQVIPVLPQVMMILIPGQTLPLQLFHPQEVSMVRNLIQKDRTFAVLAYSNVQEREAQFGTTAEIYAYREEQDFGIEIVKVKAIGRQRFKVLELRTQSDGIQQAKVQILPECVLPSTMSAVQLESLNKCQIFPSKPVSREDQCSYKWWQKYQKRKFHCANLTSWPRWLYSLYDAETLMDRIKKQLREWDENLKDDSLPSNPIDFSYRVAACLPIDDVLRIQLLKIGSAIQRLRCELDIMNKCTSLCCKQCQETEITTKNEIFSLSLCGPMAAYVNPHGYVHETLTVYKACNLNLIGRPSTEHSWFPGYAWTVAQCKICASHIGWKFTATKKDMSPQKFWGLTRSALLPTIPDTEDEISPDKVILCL
T2 sequence (Q16531 whole entry partner): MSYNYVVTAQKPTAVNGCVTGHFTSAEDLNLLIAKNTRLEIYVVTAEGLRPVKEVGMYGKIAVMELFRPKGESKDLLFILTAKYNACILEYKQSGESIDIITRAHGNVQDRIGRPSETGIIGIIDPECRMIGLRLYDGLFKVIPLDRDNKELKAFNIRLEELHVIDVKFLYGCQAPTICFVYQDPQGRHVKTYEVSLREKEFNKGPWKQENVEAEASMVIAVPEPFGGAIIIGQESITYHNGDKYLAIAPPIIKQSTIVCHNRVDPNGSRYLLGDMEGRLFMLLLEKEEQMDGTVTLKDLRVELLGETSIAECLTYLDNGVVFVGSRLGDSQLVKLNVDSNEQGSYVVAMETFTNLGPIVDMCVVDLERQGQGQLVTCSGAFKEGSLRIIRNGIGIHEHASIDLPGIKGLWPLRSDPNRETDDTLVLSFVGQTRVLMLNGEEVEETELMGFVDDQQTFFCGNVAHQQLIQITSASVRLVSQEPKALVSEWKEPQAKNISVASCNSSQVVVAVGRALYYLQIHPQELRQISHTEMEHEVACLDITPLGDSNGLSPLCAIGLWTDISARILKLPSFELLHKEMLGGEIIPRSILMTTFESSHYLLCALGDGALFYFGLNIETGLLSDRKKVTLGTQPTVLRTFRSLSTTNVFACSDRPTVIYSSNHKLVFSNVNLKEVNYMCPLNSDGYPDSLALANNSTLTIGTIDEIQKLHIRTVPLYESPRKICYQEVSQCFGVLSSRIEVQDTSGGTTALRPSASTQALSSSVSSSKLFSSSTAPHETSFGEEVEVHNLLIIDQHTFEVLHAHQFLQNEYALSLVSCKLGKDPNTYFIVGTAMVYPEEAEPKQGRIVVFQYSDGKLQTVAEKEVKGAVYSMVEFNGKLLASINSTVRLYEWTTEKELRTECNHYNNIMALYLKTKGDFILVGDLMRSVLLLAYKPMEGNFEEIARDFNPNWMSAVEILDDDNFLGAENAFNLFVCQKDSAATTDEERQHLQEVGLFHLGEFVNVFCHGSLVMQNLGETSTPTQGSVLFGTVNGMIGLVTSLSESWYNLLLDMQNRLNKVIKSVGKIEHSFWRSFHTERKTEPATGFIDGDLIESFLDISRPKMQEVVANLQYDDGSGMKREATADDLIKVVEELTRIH
Briefly: Western-blot assay of substrate protein degradation in hPBMCs, IKZF1. In kind it is cell-based. To be noted: 24 hours of compound treatment, 50 nM and 500 nM tested (concentration behind the class not stated).

In a further assay the target is T3, CK1α (Homo sapiens, UniProt P48729+Q96SW2).
T3 construct: endogenous in cells; host or cells: hPBMCs (Milecell Biotechnologies)
Briefly: Western-blot assay of substrate protein degradation in hPBMCs, CK1α. In kind it is cell-based. To be noted: 24 hours of compound treatment, 50 nM and 500 nM tested (concentration behind the class not stated).

Another assay addresses T4, GSPT1 (Homo sapiens, UniProt P15170+Q96SW2).
T4 construct: endogenous in cells; host or cells: hPBMCs (Milecell Biotechnologies)
The assay can be described thus: Western-blot assay of substrate protein degradation in hPBMCs, GSPT1. In kind it is cell-based. To be noted: 24 hours of compound treatment, 50 nM and 500 nM tested (concentration behind the class not stated).

Assay [1] deals with T5, human Cereblon WT GST-tagged protein (Homo sapiens, UniProt Q96SW2).
T5 construct: purchased CISBIO 64BDCRBNPEH
T5 sequence (Q96SW2 whole entry): as the sequence (Q96SW2 whole entry) above
The assay can be described thus: CRBN-binding affinity by HTRF (CEREBLON BINDING kit). To be noted: HTRF inhibitory activity, CEREBLON BINDING kit; read-out: HTRF IC50. On the technique in general: Time-resolved FRET reads energy transfer from a long-lived donor to a nearby acceptor.

The next assay has as its target T6, IKZF2 (Homo sapiens, UniProt Q96SW2+Q9UKS7).
T6 construct: endogenous in cells; host or cells: hPBMCs (Milecell Biotechnologies)
The assay can be described thus: Western-blot assay of substrate protein degradation in hPBMCs, IKZF2. In kind it is cell-based. To be noted: 24 hours of compound treatment, 50 nM and 500 nM tested (concentration behind the class not stated).

For the next assay, the target named is T7, IKZF3 (Homo sapiens, UniProt Q96SW2+Q9UKT9).
T7 construct: endogenous in cells; host or cells: hPBMCs (Milecell Biotechnologies)
T7 sequence (Q9UKT9 whole entry): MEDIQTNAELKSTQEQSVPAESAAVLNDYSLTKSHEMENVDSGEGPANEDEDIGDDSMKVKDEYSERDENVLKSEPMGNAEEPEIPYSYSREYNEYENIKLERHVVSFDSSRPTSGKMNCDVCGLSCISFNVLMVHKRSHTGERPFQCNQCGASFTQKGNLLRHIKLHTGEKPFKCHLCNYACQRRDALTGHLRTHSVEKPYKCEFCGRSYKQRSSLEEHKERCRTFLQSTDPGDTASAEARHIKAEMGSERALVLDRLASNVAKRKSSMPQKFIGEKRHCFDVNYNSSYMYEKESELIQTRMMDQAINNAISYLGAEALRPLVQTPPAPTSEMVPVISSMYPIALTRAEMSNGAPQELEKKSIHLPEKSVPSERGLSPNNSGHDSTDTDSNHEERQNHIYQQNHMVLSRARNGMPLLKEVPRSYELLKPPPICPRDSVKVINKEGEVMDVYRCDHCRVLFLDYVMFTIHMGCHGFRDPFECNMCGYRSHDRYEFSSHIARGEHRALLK
T7 sequence (Q96SW2 whole entry): as the sequence (Q96SW2 whole entry) above
T7 sequence (Q16531 whole entry partner): as the sequence (Q16531 whole entry partner) above
Briefly: Western-blot assay of substrate protein degradation in hPBMCs, IKZF3. To be noted: 24 hours of compound treatment, 50 nM and 500 nM tested (concentration behind the class not stated). In kind it is cell-based.

T4 sequence (P15170 whole entry): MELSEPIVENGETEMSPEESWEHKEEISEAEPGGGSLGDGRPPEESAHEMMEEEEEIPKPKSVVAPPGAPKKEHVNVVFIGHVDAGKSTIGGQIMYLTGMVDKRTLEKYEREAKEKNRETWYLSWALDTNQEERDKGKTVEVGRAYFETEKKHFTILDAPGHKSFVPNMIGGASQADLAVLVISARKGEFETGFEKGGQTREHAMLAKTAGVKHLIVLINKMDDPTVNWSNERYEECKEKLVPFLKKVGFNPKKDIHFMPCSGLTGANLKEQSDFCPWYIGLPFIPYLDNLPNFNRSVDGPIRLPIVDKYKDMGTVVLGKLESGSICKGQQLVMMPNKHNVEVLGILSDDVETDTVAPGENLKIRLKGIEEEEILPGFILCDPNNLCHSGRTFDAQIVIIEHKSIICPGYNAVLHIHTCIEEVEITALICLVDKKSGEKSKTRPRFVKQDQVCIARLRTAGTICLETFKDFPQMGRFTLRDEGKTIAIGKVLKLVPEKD
T4 sequence (Q96SW2 whole entry): as the sequence (Q96SW2 whole entry) above
T4 sequence (Q16531 whole entry partner): as the sequence (Q16531 whole entry partner) above
T1 sequence (P30291 whole entry): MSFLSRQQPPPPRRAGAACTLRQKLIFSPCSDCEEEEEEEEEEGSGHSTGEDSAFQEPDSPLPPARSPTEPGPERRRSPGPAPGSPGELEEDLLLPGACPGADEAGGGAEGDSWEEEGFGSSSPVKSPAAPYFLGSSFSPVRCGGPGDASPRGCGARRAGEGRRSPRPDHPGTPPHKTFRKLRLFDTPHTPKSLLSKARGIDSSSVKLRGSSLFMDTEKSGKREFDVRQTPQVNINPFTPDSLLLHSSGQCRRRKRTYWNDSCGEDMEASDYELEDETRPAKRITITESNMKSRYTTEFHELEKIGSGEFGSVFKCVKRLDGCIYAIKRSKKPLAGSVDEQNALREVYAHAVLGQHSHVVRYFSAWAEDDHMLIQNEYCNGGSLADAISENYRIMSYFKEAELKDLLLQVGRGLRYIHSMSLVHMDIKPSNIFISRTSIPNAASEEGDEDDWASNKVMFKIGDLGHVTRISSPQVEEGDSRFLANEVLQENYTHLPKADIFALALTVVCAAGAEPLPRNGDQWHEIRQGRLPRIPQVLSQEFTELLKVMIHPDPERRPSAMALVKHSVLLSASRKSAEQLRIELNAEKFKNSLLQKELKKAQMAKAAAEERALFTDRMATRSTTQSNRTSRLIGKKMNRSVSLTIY
T1 sequence (Q96SW2 whole entry): as the sequence (Q96SW2 whole entry) above
T1 sequence (Q16531 whole entry partner): as the sequence (Q16531 whole entry partner) above
T6 sequence (Q9UKS7 whole entry): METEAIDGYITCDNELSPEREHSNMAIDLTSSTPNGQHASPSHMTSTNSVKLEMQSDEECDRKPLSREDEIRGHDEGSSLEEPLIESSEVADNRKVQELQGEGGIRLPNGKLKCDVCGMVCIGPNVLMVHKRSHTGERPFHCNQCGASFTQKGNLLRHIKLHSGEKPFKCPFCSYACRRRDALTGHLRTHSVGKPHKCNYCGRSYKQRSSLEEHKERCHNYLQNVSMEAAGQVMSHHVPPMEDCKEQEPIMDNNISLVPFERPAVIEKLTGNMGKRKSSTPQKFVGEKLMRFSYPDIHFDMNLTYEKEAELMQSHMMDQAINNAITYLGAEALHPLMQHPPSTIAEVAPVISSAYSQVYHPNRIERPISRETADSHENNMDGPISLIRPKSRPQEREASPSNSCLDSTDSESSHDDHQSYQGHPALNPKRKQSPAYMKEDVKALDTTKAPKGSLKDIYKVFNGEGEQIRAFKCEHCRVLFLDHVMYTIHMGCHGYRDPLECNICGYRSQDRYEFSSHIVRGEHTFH
T6 sequence (Q96SW2 whole entry): as the sequence (Q96SW2 whole entry) above
T6 sequence (Q16531 whole entry partner): as the sequence (Q16531 whole entry partner) above

Regarding `O=C1CCC(N2C(=O)c3ccc(CN4CCN(c5ncnc6sc7c(c56)CCC7)CC4)cc3C2=O)C(=O)N1` (stereo not shown) [GT-06565, 5-((4-(6,7-dihydro-5H-cyclopenta[4,5]thieno[2,3-d]pyrimidin-4-yl)piperazin-1-yl)methyl)-2-(2,6-dioxopiperidin-3-yl)isoindoline-1,3-dione], the “Weel substrate protein remaining %” value at WEE1 is given as “A (0% ≤ substrate protein remaining % ≤ 80%)”. The “IKZF 1 substrate protein remaining %” value on IKZF1 was “A (0% ≤ substrate protein remaining % ≤ 80%)”. Further, the “CK1a substrate protein remaining %” value at CK1α is reported as “A (0% ≤ substrate protein remaining % ≤ 80%)”. In addition, the “GSPT1 substrate protein remaining %” value on GSPT1 is on record as “A (0% ≤ substrate protein remaining % ≤ 80%)”. For the same compound, the IC50 (commonly the concentration needed to halve the response being measured) in assay [1] was in the range of 1 to 1.5 µM. The “IKZF2 substrate protein remaining %” value on IKZF2 is on record as “A (0% ≤ substrate protein remaining % ≤ 80%)”. The “IKZF3 substrate protein remaining %” value on IKZF3 is reported as “A (0% ≤ substrate protein remaining % ≤ 80%)”.
On to `Cc1nc(N2CCN(Cc3ccc4c(c3)C(=O)N(C3CCC(=O)NC3=O)C4=O)CC2)c2c3c(sc2n1)CCC3` (stereo not shown) [GT-06566, 2-(2,6-dioxopiperidin-3-yl)-5-((4-(2-methyl-6,7-dihydro-5H-cyclopenta[4,5]thieno[2,3-d]pyrimidin-4-yl)piperazin-1-yl)methyl)isoindoline-1,3-dione], for which the “Weel substrate protein remaining %” value at WEE1 is “A (0% ≤ substrate protein remaining % ≤ 80%)”. In addition, on IKZF1, the “IKZF 1 substrate protein remaining %” value is given as “A (0% ≤ substrate protein remaining % ≤ 80%)”. Further, at CK1α, the “CK1a substrate protein remaining %” value is listed as “A (0% ≤ substrate protein remaining % ≤ 80%)”. Besides, the “GSPT1 substrate protein remaining %” value at GSPT1 is given as “A (0% ≤ substrate protein remaining % ≤ 80%)”. Moreover, the half-maximal inhibitory concentration (IC50) in assay [1] was 0.5 to 1 µM. For the same compound, the “IKZF2 substrate protein remaining %” value on IKZF2 was “A (0% ≤ substrate protein remaining % ≤ 80%)”. For the same compound, at IKZF3, the “IKZF3 substrate protein remaining %” value was “A (0% ≤ substrate protein remaining % ≤ 80%)”.
For the compound `O=C1CCC(N2C(=O)c3ccc(CN4CCN(c5ncc6ccsc6n5)CC4)cc3C2=O)C(=O)N1` (stereo not shown) [GT-06567, 2-(2,6-dioxopiperidin-3-yl)-5-((4-(thieno[2,3-d]pyrimidin-2-yl)piperazin-1-yl)methyl)isoindoline-1,3-dione], the “Weel substrate protein remaining %” value on WEE1 is reported as “A (0% ≤ substrate protein remaining % ≤ 80%)”. Also, on IKZF1, the “IKZF 1 substrate protein remaining %” value is given as “B (80%< substrate protein remaining %≤ 100%)”. For the same compound, on CK1α, the “CK1a substrate protein remaining %” value is recorded as “A (0% ≤ substrate protein remaining % ≤ 80%)”. In addition, the “GSPT1 substrate protein remaining %” value on GSPT1 is reported as “A (0% ≤ substrate protein remaining % ≤ 80%)”. Further, the IC50 in assay [1] was in the range of 1 to 1.5 µM. Moreover, the “IKZF2 substrate protein remaining %” value at IKZF2 is on record as “B (80%< substrate protein remaining %≤ 100%)”. Besides, the “IKZF3 substrate protein remaining %” value at IKZF3 is listed as “B (80%< substrate protein remaining %≤ 100%)”.
In the case of `Cc1sc2ncnc(C3CCN(Cc4ccc5c(c4)C(=O)N(C4CCC(=O)NC4=O)C5=O)CC3)c2c1C` (stereo not shown) [GT-06593, 5-((4-(5,6-dimethylthieno[2,3-d]pyrimidin-4-yl)piperidin-1-yl)methyl)-2-(2,6-dioxopiperidin-3-yl)isoindoline-1,3-dione], the “Weel substrate protein remaining %” value at WEE1 is given as “A (0% ≤ substrate protein remaining % ≤ 80%)”. Further, the “IKZF 1 substrate protein remaining %” value at IKZF1 is “A (0% ≤ substrate protein remaining % ≤ 80%)”. Besides, at CK1α, the “CK1a substrate protein remaining %” value is given as “B (80%< substrate protein remaining %≤ 100%)”. The “GSPT1 substrate protein remaining %” value on GSPT1 was “A (0% ≤ substrate protein remaining % ≤ 80%)”. The IC50 in assay [1] fell in the range of 1.5 to 1.9 µM. On IKZF2, the “IKZF2 substrate protein remaining %” value is reported as “A (0% ≤ substrate protein remaining % ≤ 80%)”. In addition, the “IKZF3 substrate protein remaining %” value on IKZF3 was “A (0% ≤ substrate protein remaining % ≤ 80%)”.
Turning to `O=C1CCC(N2C(=O)c3ccc(CN4CC=C(c5c[nH]c6cc(F)ccc56)CC4)cc3C2=O)C(=O)N1` (stereo not shown) [GT-06634, 2-(2,6-dioxopiperidin-3-yl)-5-((4-(6-fluoro-1H-indol-3-yl)-3,6-dihydropyridin-1(2H)-yl)methyl)isoindoline-1,3-dione], the “Weel substrate protein remaining %” value on WEE1 is “A (0% ≤ substrate protein remaining % ≤ 80%)”. For the same compound, at IKZF1, the “IKZF 1 substrate protein remaining %” value is reported as “B (80%< substrate protein remaining %≤ 100%)”. Besides, the “CK1a substrate protein remaining %” value on CK1α is “A (0% ≤ substrate protein remaining % ≤ 80%)”. For the same compound, on GSPT1, the “GSPT1 substrate protein remaining %” value is recorded as “A (0% ≤ substrate protein remaining % ≤ 80%)”. For the same compound, the IC50 in assay [1] was 0.5 to 1 µM. Also, at IKZF2, the “IKZF2 substrate protein remaining %” value is listed as “A (0% ≤ substrate protein remaining % ≤ 80%)”. Moreover, the “IKZF3 substrate protein remaining %” value on IKZF3 is “A (0% ≤ substrate protein remaining % ≤ 80%)”.
Consider `Cc1nc(C2CCN(Cc3ccc4c(c3)C(=O)N(C3CCC(=O)NC3=O)C4=O)CC2)c2c(-c3ccccc3)csc2n1` (stereo not shown) [GT-06646, 2-(2,6-dioxopiperidin-3-yl)-5-((4-(2-methyl-5-phenylthieno[2,3-d]pyrimidin-4-yl)piperidin-1-yl)methyl)isoindoline-1,3-dione], for which the “Weel substrate protein remaining %” value at WEE1 was “B (80%< substrate protein remaining %≤ 100%)”. In addition, at IKZF1, the “IKZF 1 substrate protein remaining %” value is on record as “B (80%< substrate protein remaining %≤ 100%)”. Further, the “CK1a substrate protein remaining %” value on CK1α was “B (80%< substrate protein remaining %≤ 100%)”. Also, at GSPT1, the “GSPT1 substrate protein remaining %” value is given as “A (0% ≤ substrate protein remaining % ≤ 80%)”. The IC50 in assay [1] is 0.5 to 1 µM. For the same compound, on IKZF2, the “IKZF2 substrate protein remaining %” value was “B (80%< substrate protein remaining %≤ 100%)”. The “IKZF3 substrate protein remaining %” value on IKZF3 is on record as “B (80%< substrate protein remaining %≤ 100%)”.
As for `O=C1CCC(N2C(=O)c3ccc(CN4CCC(c5ncnc6sc7c(c56)CCCC7)CC4)cc3C2=O)C(=O)N1` (stereo not shown) [GT-06649, 2-(2,6-dioxopiperidin-3-yl)-5-((4-(5,6,7,8-tetrahydrobenzo[4,5]thieno[2,3-d]pyrimidin-4-yl)piperidin-1-yl)methyl)isoindoline-1,3-dione], the “Weel substrate protein remaining %” value on WEE1 is “A (0% ≤ substrate protein remaining % ≤ 80%)”. At IKZF1, the “IKZF 1 substrate protein remaining %” value is on record as “B (80%< substrate protein remaining %≤ 100%)”. Moreover, the “CK1a substrate protein remaining %” value at CK1α is “A (0% ≤ substrate protein remaining % ≤ 80%)”. Further, the “GSPT1 substrate protein remaining %” value at GSPT1 is given as “A (0% ≤ substrate protein remaining % ≤ 80%)”. For the same compound, the IC50 in assay [1] was 1.5 to 1.9 µM. Besides, at IKZF2, the “IKZF2 substrate protein remaining %” value is “A (0% ≤ substrate protein remaining % ≤ 80%)”. At IKZF3, the “IKZF3 substrate protein remaining %” value is on record as “A (0% ≤ substrate protein remaining % ≤ 80%)”.
Take `O=C1CCC(N2C(=O)c3ccc(CN4CCC(c5ncnc6sc7c(c56)CCC7)CC4)cc3C2=O)C(=O)N1` (stereo not shown) [GT-06650, 5-((4-(6,7-dihydro-5H-cyclopenta[4,5]thieno[2,3-d]pyrimidin-4-yl)piperidin-1-yl)methyl)-2-(2,6-dioxopiperidin-3-yl)isoindoline-1,3-dione]: the “Weel substrate protein remaining %” value at WEE1 is “A (0% ≤ substrate protein remaining % ≤ 80%)”. Moreover, on IKZF1, the “IKZF 1 substrate protein remaining %” value was “B (80%< substrate protein remaining %≤ 100%)”. Also, the “CK1a substrate protein remaining %” value on CK1α was “B (80%< substrate protein remaining %≤ 100%)”. Further, the “GSPT1 substrate protein remaining %” value on GSPT1 is “B (80%< substrate protein remaining %≤ 100%)”. In addition, the IC50 in assay [1] lay in the range of 1.5 to 1.9 µM. For the same compound, the “IKZF2 substrate protein remaining %” value at IKZF2 is reported as “B (80%< substrate protein remaining %≤ 100%)”. The “IKZF3 substrate protein remaining %” value at IKZF3 is listed as “B (80%< substrate protein remaining %≤ 100%)”.
For `Cc1nc(C2CCN(Cc3ccc4c(c3)C(=O)N(C3CCC(=O)NC3=O)C4=O)CC2)c2c3c(sc2n1)CCC3` (stereo not shown) [GT-06651, 2-(2,6-dioxopiperidin-3-yl)-5-((4-(2-methyl-6,7-dihydro-5H-cyclopenta[4,5]thieno[2,3-d]pyrimidin-4-yl)piperidin-1-yl)methyl)isoindoline-1,3-dione], the “Weel substrate protein remaining %” value at WEE1 was “A (0% ≤ substrate protein remaining % ≤ 80%)”. In addition, the “IKZF 1 substrate protein remaining %” value on IKZF1 was “B (80%< substrate protein remaining %≤ 100%)”. Further, on CK1α, the “CK1a substrate protein remaining %” value is given as “B (80%< substrate protein remaining %≤ 100%)”. The “GSPT1 substrate protein remaining %” value on GSPT1 was “B (80%< substrate protein remaining %≤ 100%)”. Also, in assay [1], the 50% inhibitory concentration (IC50) lay within 1 to 1.5 µM. The “IKZF2 substrate protein remaining %” value on IKZF2 was “A (0% ≤ substrate protein remaining % ≤ 80%)”. For the same compound, the “IKZF3 substrate protein remaining %” value at IKZF3 is “B (80%< substrate protein remaining %≤ 100%)”.
Consider `O=C1CCC(N2C(=O)c3ccc(CN4CC=C(c5ncnc6sccc56)CC4)cc3C2=O)C(=O)N1` (stereo not shown) [GT-06653, 2-(2,6-dioxopiperidin-3-yl)-5-((4-(thieno[2,3-d]pyrimidin-4-yl)-3,6-dihydropyridin-1(2H)-yl)methyl)isoindoline-1,3-dione], for which the “Weel substrate protein remaining %” value on WEE1 is “A (0% ≤ substrate protein remaining % ≤ 80%)”. Further, the “IKZF 1 substrate protein remaining %” value on IKZF1 is “A (0% ≤ substrate protein remaining % ≤ 80%)”. For the same compound, the “CK1a substrate protein remaining %” value on CK1α is reported as “B (80%< substrate protein remaining %≤ 100%)”. The “GSPT1 substrate protein remaining %” value at GSPT1 is reported as “A (0% ≤ substrate protein remaining % ≤ 80%)”. In addition, the IC50 in assay [1] is 0.5 to 1 µM. Also, the “IKZF2 substrate protein remaining %” value on IKZF2 is listed as “B (80%< substrate protein remaining %≤ 100%)”. Besides, the “IKZF3 substrate protein remaining %” value at IKZF3 is “A (0% ≤ substrate protein remaining % ≤ 80%)”.
